Ends that are not written are not given here.
Columns and labels:
Format in all cases: cell-based, human
[1] = test system: lung cancer cells (No. B18); experiment: Effects of different factors added to basic medium BM on proliferation of primary lung cancer cells; conditions: factor added to BM at the concentrations of Table 3; 12 days of culture; FIGS. 1A-1D
Method: (§1) Extracellular matrix gel (Matrigel®) (manufactured by Corning) was diluted with serum-free DMEM/F12 medium at a ratio of 1:100 to prepare an extracellular matrix diluent. The extracellular matrix diluent was added to a 48-well culture plate with 500 μl/well to completely cover the bottom of the wells of the culture plate. The culture plate was let stand for 1 hour in a 37° C. incubator. After 1 hour, the extracellular matrix diluent was removed to provide a Matrigel-coated plate.
Preparation of basic medium (abbreviated as BM): BM was prepared by adding 0.2 vol. % of Primocin (purchased from Invivogen, with a concentration of 50 mg/ml) to the commercial DMEM/F-12 medium to provide a final concentration of 100 μg/ml.
Next, different kinds and concentrations of additive factors (Table 3) were added to the basic medium (BM), so as to prepare culture mediums for lung cancer epithelial cells containing different additive components.
The culture mediums with different components were added at a volume of 500 μl/well to 48-well plates which were coated with extracellular matrix gel (Matrigel). Lung cancer cells (No. B18) isolated from lung cancer tissues according to the same method as described in Example 1 were inoculated at a cell density of 2×10^4 cells/cm^2 in the above-mentioned 48-well culture plates which were coated with Matrigel. After surface disinfection, the plates were placed in a 37° C., 5% CO2 incubator (purchased from Thermo Fisher), and the same number of freshly isolated lung cancer tumor cells (No. B18) were cultured under different medium formulations. The culture mediums were replaced every 4 days after the start of culture. After 12 days of culture, cell counts were performed. The basic medium (BM) without addition of any additive factor was used as a control. The ordinate in the figures represents the ratio of the number of cells obtained after culture in different mediums to the number of cells obtained after culture in basic medium BM.

[2] = test system: lung cancer epithelial cells (Sample No. B26); experiment: Effects of different concentrations of the additive factors on proliferation of primary lung cancer cells; conditions: added to No. 8 medium lacking the factor; cell number ratio to Blank Control; FIGS. 3A-3H
Method: as §1, with “(Matrigel®)” for “(Matrigel®) (manufactured by Corning)”, “200” for “500”
No. 8 culture medium for primary lung cancer epithelial cells was prepared.
Lung cancer epithelial cells derived from cancer tissues were isolated from the cancer tissue of a lung cancer patient (Sample No. B26) using the same method as in Example 1. Next, lung cancer epithelial cells derived from cancer tissues were counted with a flow imaging counter (JIMBIO FIL, Jiangsu Jimbio Technology Co., Ltd.) to get the total number of cells. Then, the cells were inoculated at a density of 4×10^4 cells/cm^2 in a 48-well plate which was coated with Matrigel®. […] of the prepared No. 8 culture medium for primary lung cancer epithelial cells was added to the 48-well plate, which was then placed in a 37° C., 5% CO2 incubator (purchased from Thermo Fisher) for culture. When the cells in the culture plate grew to cover about 80% of the bottom area, the supernatant of medium in the 48-well plate was discarded and 500 μl of 0.05% trypsin (purchased from Gibco) was added for cell digestion, which was then incubated at 37° C. for 10 minutes, until the cells were completely digested as observed under a microscope (EVOS M500, Invitrogen); then the digestion was terminated by using 1 ml of DMEM/F12 culture solution containing 5% (v/v) fetal bovine serum (purchased from ExCell Bio), 100 U/ml penicillin (purchased from Corning), and […] streptomycin (purchased from Corning); the resultant was collected into a 15 ml centrifuge tube and centrifuged at 1500 rpm for 4 minutes, and then the supernatant was discarded. The centrifuged cell pellet was resuspended in the basic medium BM and the cells were counted with a flow imaging counter (JIMBIO FIL, Jiangsu Jimbio Technology Co., Ltd.) to get the total number of cells. The obtained cells were used in the following cultivation experiments.
Next, the following 8 formulations of culture medium were prepared for experiments: • Formulation 1: No. 8 culture medium composition without B27 additive; • Formulation 2: No. 8 culture medium composition without fibroblast growth factor; • Formulation 3: No. 8 culture medium composition without transferrin; • Formulation 4: No. 8 culture medium composition without epidermal growth factor; • Formulation 5: No. 8 culture medium composition without Y27632; • Formulation 6: No. 8 culture medium composition without Compound 1; • Formulation 7: No. 8 culture medium composition without A83-01; • Formulation 8: No. 8 culture medium composition without gastrin.
The digested cell suspension was diluted with the above Formulations 1-8 respectively, and then inoculated into a 48-well plate at a volume of 250 μl with 10,000 cells per well.
When using the medium of Formulation 1, to a 48-well plate inoculated with primary cells was added the prepared B27 additive, with 250 μl per well, the final concentrations of B27 additive were 1:800, 1:400, 1:200, 1:100, 1:50, 1:25, respectively; a well of Blank Control (BC) was set using the medium of Formulation 1.
When using the medium of Formulation 2, to a 48-well plate inoculated with primary cells was added the prepared fibroblast growth factor, with 250 μl per well, the final concentrations of fibroblast growth factor were 80 ng/ml, 40 ng/ml, 20 ng/ml, 10 ng/ml, 5 ng/ml, 2.5 ng/ml, respectively; a well of Blank Control (BC) was set using the medium of Formulation 2. […]

[3] = test system: Hippo pathway related proteins YAP and TAZ in the nucleus; experiment: Immunoblotting of Hippo pathway related proteins YAP and TAZ in the nucleus; conditions: B16 cells, FLM with Compound 1 versus FLM without Compound 1, 12 days; FIG. 10
Method: Freshly isolated primary lung cancer epithelial cell sample (No. B16) was obtained according to the steps described in Example 1. Then, the primary epithelial cells were inoculated onto a 6-well plate coated with Matrigel™. 3 mL of the culture medium FLM and 3 mL of the culture medium FLM without Compound 1 were respectively added to the wells inoculated with the aforementioned epithelial cells. The plate was placed in a 37° C., 5% CO2 incubator (purchased from Thermo Fisher) for culture. The culture mediums were changed every 4 days during the culture process. After 12 days of cultivation, cells of each group were collected and the […] of Compound 1 on Hippo pathway related proteins YAP and TAZ in the nucleus was detected using conventional immunoblotting method. Yes associated protein (YAP) and its homologous transcriptional co-activator PDZ-binding motif (TAZ) are key effectors in the Hippo pathway that control cell growth and organ size, and their dysregulation may lead to tumor development or hypertrophy. After activation, YAP/TAZ translocate to the nucleus and bind to TEAD transcription factors, promoting cell proliferation or regulated transcription process.

| Molecule | effect on cell proliferation (ratio of number of cells to that in basic medium BM) [1] | amount in the culture medium, most preferably [2] | expression of YAP and TAZ proteins in the nucleus [3] |
| --- | --- | --- | --- |
| CN1C(=O)C(c2c(F)cccc2F)N(C)c2nc(Nc3ccc(S(N)(=O)=O)cc3)ncc21 (stereo not shown) [Compound 1, 4-((7-(2,6-Difluorophenyl)-5,8-dimethyl-6-oxo-5,6,7,8-tetrahydropteridin-2-yl)amino)benzsulfamide] | certain promoting effects on cell proliferation in specific concentration ranges | 5 µM | significant increase |
| Cc1cccc(-c2nn(C(=S)Nc3ccccc3)cc2-c2ccnc3ccccc23)n1 [Compound A83-01, reference compound] | certain promoting effects on cell proliferation in specific concentration ranges | 0.5 µM | – |
| C[C@@H](N)[C@H]1CC[C@H](C(=O)Nc2ccncc2)CC1 [Compound Y27632, reference compound] | certain promoting effects on cell proliferation in specific concentration ranges | 10 µM | – |
| fibroblast growth factor | certain promoting effects on cell proliferation in specific concentration ranges | 10 ng/mL | – |
| gastrin: additive factor from Sino Biological Inc. (QGPWLEEEEEAYGWMDF; ends and bridges not checked; UniProt P01350 76-92, looked up) | certain promoting effects on cell proliferation in specific concentration ranges | 10 ng/mL | – |
| transferrin: additive factor from Sino Biological Inc. | certain promoting effects on cell proliferation in specific concentration ranges | 20 ng/mL | – |

Reference: patent publication US20240392251A1, “CULTURE MEDIUM AND CULTURE METHOD FOR LUNG CANCER EPITHELIAL CELLS, AND APPLICATION THEREOF” (PRECEDO PHARMACEUTICALS CO., LTD, priority 2021, published 2024)
